Values of other authors in US8673347B2 (Creabilis Therapeutics S.p.A., priority 2005, dated 2014).

Tests used:
TrkA = TrkA (Homo sapiens, UniProt P04629); conditions: cited from earlier work
MLK3 = MLK3 (Homo sapiens, UniProt Q16584); conditions: cited from earlier work
Chain of MLK3 (Q16584 whole entry, species assumed): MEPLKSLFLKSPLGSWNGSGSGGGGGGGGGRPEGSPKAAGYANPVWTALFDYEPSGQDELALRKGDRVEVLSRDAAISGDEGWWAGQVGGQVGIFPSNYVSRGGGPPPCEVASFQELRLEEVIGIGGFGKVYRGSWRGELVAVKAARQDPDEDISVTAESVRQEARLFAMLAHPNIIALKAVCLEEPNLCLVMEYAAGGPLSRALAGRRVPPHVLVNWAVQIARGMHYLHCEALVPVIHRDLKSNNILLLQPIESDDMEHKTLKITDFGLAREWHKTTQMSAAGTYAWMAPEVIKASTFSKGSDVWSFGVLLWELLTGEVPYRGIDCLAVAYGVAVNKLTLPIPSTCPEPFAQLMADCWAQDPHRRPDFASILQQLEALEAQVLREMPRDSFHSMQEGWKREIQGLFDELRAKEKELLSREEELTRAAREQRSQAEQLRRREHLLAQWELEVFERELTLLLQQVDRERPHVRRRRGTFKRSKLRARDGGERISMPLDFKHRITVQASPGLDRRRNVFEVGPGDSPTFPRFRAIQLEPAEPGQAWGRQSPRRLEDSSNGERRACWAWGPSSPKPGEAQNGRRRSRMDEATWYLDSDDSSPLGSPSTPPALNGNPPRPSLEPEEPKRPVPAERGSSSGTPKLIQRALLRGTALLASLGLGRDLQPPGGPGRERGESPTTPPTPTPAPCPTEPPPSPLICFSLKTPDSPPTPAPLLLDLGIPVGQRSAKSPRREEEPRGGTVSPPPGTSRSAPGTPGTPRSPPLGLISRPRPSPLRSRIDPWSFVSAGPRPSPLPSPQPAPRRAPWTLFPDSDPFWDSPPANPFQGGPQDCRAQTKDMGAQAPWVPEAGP

Chain of TrkA (P04629 33-796, species assumed): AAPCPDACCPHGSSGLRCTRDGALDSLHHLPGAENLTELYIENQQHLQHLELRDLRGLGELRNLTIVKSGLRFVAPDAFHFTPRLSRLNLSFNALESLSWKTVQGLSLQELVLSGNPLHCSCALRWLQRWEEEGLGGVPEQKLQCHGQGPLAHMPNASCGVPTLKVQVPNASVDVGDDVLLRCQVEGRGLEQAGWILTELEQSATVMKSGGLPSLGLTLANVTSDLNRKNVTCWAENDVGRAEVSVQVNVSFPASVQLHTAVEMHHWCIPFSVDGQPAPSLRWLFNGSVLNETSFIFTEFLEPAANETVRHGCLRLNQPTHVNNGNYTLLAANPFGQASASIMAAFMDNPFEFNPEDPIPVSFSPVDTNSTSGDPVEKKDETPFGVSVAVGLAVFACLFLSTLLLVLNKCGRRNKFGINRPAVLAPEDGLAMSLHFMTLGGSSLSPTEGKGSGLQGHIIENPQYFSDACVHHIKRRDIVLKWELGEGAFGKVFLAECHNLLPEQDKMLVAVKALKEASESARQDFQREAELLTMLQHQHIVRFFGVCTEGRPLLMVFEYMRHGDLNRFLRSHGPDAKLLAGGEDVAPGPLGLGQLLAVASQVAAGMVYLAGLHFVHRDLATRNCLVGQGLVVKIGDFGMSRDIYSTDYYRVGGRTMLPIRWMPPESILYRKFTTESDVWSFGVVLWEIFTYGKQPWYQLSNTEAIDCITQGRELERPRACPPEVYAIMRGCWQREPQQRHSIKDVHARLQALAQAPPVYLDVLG

## CCSCc1ccc2c(c1)c1c3c(c4c5cc(CSCC)ccc5n5c4c1n2[C@H]1C[C@](O)(C(=O)OC)[C@]5(C)O1)CNC3=O [CEP1347]
TrkA
  TrkA inhibition: does not inhibit TrkA
MLK3
  inhibition of MAPKKKs, including MLK3: directly inhibit
